Test results: patent EP4467141A1, “PYRAZOLO-QUINOLINES AS SELECTIVE INHIBITORS OF GENOTOXIC STRESS-INDUCED IKK/NF- KB PATHWAYS FOR CANCER THERAPY” (Max-Delbrück-Centrum für Molekulare Medizin in der …, priority 2023, dated 2024)

Key:
Assay in all cases: Kinase panel study
Assay type in all cases: biochemical
Conditions in all cases: read-out: Percentage of inhibition; for inhibition at 1 µM: 1000nM; for inhibition at 10 µM: 10000nM
SGK2 = target: T1, SGK2 (Homo sapiens, UniProt Q9HBY8)
T1 construct: purchased Thermo Fisher Scientific
T1 sequence (Q9HBY8 1-367): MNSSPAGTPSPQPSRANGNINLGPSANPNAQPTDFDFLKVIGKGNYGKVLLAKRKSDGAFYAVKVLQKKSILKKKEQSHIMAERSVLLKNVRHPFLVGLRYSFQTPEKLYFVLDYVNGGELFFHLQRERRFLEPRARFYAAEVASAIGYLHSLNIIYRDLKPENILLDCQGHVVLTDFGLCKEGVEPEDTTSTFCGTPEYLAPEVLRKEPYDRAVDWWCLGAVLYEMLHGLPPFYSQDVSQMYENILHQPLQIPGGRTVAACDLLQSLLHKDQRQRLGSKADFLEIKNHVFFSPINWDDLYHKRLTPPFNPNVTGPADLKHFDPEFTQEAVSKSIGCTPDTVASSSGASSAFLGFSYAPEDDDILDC
How it was run: (§1)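 Outsourced panel screen. Format: ZLyte or Adapta, run per the manufacturer's procedures. Read-out: inhibition (%) at a single dose of 10 µM or 1 µM; IC50s also generated.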

MAPK12 (p38 gamma) = target: T2, MAPK12 (p38 gamma) (Homo sapiens, UniProt P53778)
T2 construct: purchased Thermo Fisher Scientific
T2 sequence (P53778 1-367): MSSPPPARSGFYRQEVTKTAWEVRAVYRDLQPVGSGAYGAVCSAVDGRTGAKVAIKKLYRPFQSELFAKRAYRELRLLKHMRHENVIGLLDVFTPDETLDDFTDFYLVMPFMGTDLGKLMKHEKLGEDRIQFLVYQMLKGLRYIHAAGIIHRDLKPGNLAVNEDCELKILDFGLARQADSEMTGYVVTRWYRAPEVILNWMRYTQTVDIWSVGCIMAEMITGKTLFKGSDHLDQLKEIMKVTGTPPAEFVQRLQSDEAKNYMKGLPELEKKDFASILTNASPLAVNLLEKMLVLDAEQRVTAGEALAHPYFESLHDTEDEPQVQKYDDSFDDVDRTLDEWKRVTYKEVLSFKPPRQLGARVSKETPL
How it was run: as §1

MERTK (cMER) = target: T3, MERTK (cMER) (Homo sapiens, UniProt Q12866)
T3 construct: purchased Thermo Fisher Scientific
T3 sequence (Q12866 21-999): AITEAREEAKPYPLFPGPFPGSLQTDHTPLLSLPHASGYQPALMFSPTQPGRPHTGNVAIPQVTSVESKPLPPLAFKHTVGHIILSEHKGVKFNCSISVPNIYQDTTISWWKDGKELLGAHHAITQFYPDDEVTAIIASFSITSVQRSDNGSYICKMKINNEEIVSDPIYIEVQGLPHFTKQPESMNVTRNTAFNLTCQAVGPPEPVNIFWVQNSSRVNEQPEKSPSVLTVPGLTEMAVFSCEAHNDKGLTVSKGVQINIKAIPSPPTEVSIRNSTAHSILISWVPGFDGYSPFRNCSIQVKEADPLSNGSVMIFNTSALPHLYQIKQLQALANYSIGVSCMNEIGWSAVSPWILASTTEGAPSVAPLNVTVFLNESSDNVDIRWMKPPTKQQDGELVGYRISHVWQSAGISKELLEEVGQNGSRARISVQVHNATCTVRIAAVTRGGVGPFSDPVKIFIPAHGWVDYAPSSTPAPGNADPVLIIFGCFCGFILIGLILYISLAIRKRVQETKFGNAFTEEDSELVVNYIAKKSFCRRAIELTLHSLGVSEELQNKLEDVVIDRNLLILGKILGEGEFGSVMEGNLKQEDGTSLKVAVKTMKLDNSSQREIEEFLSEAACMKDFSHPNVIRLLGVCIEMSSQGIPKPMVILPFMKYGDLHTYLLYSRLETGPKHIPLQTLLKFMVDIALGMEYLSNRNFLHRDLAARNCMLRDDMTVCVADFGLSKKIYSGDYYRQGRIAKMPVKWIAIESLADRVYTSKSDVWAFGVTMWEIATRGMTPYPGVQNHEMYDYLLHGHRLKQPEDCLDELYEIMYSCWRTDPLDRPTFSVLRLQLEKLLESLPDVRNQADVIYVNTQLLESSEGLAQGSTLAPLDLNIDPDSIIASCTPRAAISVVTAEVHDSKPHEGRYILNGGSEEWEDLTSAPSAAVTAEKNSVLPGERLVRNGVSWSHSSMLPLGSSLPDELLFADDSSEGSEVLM
How it was run: as §1

PAK4 = target: T4, PAK4 (Homo sapiens, UniProt O96013)
T4 construct: purchased Thermo Fisher Scientific
T4 sequence (O96013 whole entry): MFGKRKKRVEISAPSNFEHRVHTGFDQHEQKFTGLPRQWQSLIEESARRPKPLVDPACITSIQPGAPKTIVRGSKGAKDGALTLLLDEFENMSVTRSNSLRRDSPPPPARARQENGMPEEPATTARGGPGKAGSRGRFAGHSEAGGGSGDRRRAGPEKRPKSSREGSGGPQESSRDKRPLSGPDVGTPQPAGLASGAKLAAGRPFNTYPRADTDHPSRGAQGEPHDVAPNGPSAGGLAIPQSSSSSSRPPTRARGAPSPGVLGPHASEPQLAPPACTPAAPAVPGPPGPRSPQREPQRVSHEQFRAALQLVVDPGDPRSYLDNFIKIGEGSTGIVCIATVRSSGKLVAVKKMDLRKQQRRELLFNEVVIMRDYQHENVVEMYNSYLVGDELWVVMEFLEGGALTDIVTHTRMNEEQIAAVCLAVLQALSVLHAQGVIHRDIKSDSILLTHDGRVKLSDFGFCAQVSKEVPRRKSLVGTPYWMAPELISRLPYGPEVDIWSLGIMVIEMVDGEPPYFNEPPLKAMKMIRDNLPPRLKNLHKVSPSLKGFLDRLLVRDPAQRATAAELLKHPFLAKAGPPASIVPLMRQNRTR
How it was run: as §1

GSK3A (GSK3 alpha) = target: T5, GSK3A (GSK3 alpha) (Homo sapiens, UniProt P49840)
T5 construct: purchased Thermo Fisher Scientific
T5 sequence (P49840 whole entry): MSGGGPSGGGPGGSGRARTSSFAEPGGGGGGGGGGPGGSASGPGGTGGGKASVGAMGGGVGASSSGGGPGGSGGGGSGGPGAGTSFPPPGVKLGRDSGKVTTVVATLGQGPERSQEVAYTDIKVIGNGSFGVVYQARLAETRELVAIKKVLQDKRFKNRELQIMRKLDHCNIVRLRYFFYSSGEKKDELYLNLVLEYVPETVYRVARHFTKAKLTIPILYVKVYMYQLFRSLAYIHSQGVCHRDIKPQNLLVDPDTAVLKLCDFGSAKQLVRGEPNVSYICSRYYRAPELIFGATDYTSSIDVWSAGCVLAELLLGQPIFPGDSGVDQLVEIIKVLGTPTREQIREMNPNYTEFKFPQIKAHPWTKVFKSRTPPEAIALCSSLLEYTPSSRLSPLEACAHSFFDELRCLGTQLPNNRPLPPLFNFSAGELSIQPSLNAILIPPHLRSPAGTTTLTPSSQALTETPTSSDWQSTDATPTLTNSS
How it was run: as §1

PKN1 (PRK1) = target: T6, PKN1 (PRK1) (Homo sapiens, UniProt Q16512)
T6 construct: purchased Thermo Fisher Scientific
T6 sequence (Q16512 whole entry): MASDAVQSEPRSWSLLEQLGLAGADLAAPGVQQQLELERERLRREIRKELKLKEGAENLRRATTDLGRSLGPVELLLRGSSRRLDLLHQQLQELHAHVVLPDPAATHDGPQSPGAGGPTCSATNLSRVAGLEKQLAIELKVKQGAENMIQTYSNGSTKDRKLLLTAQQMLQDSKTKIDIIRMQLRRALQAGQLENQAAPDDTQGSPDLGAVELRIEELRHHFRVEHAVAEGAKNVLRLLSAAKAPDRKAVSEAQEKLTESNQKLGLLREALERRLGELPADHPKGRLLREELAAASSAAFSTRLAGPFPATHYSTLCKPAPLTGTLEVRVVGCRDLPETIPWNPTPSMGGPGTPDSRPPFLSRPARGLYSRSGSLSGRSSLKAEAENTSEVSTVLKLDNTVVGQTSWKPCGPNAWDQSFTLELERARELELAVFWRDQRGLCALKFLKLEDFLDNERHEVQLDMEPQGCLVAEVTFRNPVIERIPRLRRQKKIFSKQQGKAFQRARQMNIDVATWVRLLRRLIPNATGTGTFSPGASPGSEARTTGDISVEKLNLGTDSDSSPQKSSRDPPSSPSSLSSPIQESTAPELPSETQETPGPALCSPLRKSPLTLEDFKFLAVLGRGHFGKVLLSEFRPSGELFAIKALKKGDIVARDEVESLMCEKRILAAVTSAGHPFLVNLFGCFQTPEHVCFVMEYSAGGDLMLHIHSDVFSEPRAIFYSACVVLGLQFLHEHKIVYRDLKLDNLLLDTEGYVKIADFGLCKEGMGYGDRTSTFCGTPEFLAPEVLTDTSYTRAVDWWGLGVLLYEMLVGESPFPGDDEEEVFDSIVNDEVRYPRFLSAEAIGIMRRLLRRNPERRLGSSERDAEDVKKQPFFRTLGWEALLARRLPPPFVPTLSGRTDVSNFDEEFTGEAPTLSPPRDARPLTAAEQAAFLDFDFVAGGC
How it was run: as §1

CSK = target: T7, CSK (Homo sapiens, UniProt P41240)
T7 construct: purchased Thermo Fisher Scientific
T7 sequence (P41240 whole entry): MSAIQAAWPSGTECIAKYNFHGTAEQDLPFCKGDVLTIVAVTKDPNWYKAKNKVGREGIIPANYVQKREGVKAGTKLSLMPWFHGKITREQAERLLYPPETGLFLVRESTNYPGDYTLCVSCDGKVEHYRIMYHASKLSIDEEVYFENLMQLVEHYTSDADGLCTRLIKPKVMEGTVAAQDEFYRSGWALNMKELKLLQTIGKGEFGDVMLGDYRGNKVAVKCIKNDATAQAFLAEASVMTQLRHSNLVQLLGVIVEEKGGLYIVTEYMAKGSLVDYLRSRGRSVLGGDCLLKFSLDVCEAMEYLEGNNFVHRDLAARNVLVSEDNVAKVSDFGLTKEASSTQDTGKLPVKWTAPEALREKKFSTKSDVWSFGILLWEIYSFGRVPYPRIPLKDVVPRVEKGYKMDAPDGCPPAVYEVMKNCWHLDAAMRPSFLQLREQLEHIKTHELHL
How it was run: as §1

KIT V559D = target: T8, KIT V559D (Homo sapiens, UniProt P10721, V559D)
T8 construct: purchased Thermo Fisher Scientific
T8 sequence (P10721 26-976 V559D): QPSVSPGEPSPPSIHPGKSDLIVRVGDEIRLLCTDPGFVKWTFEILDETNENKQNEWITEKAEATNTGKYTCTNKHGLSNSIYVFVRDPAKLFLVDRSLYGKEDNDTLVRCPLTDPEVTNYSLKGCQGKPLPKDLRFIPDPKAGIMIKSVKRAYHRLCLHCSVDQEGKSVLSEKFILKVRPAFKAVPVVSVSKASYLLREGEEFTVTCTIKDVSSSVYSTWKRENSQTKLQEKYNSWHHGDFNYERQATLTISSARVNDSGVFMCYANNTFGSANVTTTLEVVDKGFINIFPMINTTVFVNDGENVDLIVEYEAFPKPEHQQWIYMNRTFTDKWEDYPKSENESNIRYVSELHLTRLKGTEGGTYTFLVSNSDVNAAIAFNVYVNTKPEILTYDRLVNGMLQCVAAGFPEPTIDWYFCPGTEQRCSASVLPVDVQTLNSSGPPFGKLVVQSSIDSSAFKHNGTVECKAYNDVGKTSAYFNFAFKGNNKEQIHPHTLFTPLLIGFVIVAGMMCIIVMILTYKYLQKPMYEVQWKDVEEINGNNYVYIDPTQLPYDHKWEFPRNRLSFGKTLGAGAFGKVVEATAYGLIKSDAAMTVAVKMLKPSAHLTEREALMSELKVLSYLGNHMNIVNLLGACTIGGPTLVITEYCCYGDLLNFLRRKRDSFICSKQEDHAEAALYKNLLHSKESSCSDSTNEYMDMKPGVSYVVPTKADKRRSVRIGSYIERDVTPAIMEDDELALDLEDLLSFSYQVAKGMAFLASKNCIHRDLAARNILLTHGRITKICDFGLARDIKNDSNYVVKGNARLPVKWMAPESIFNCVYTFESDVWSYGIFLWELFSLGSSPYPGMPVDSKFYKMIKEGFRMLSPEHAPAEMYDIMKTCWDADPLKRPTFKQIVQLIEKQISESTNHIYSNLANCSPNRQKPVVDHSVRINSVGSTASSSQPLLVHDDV
How it was run: as §1

| SMILES | inhibition at 1 µM (SGK2) | inhibition at 10 µM (SGK2) | inhibition at 1 µM (MAPK12 (p38 gamma)) | inhibition at 10 µM (MAPK12 (p38 gamma)) | inhibition at 1 µM (MERTK (cMER)) | inhibition at 10 µM (MERTK (cMER)) | inhibition at 1 µM (PAK4) | inhibition at 10 µM (PAK4) | inhibition at 1 µM (GSK3A (GSK3 alpha)) | inhibition at 10 µM (GSK3A (GSK3 alpha)) | inhibition at 1 µM (PKN1 (PRK1)) | inhibition at 10 µM (PKN1 (PRK1)) | inhibition at 1 µM (CSK) | inhibition at 10 µM (CSK) | inhibition at 1 µM (KIT V559D) | inhibition at 10 µM (KIT V559D) |
| --- | --- | --- | --- | --- | --- | --- | --- | --- | --- | --- | --- | --- | --- | --- | --- | --- |
| COc1ccc2c(c1OC)c(=O)n1c3ccc(O)cc3c3ccnc2c31 [MW01, 5-Hydroxy-10,11-dimethoxy-9H-benzo[c]indolo[3,2,1-ij][1,5]naphthyridin-9-one] | 6% | 14% | 8% | 11% | 54% | 86% | 13% | 20% | 25% | 55% | 9% | 16% | 11% | 18% | 11% | 25% |
| COc1ccc2cc3c(N)nn(C(=O)c4cccc(N(C)C)c4)c3nc2c1 [MW05, (3-Amino-7-methoxypyrazolo[3,4-b]quinolin-1-yl)-[3-(dimethylamino)phenyl]methanone] | -3% | -11% | 4% | 4% | 4% | 11% | 11% | 15% | 3% | 18% | 15% | 4% | 9% | 13% | 13% | 15% |
